Source: patent publication US7084178B2, “Antiamyloid phenylsulfonamides: N-cycloalkylcarboxamides derivatives” (Bristol-Myers Squibb Company, priority 2003, dated 2006)

Experiments:
[1] = test system: Aβ formation in H4 cells stably transfected to overexpress the HPLAP-APP fusion protein; experiment: Inhibition of β-amyloid peptide formation in human H4 cells; type: cell-based; conditions: H4 cells overexpressing HPLAP-APP, 18 hrs at 37° C.
Protocol: γ-Secretase inhibitors can also be evaluated using in vitro assays based on the inhibition of Aβ formation in cultured cells. Cultured human cell lines, such as HEK293 and H4 cells, which express APP and γ-secretase activity or transfected derivative cell lines that overexpress wild-type APP, mutant APP, or APP fusion proteins will secrete Aβ peptides into the culture media that can be quantified as previously outlined (Dovey, H., John, V. et al., J. Neurochem. 2001, 76, 173–181). The incubation of these cultured cells with γ-secretase inhibitors decreases the production of Aβ peptides. For instance, H4 cells stably transfected to overexpress the HPLAP-APP fusion protein described above were grown as above, detached, and adjusted to 2×10^5 cells/ml. 100 μl of the resulting suspension was then added to each well of a 96-well plate. After 4 hrs, the media was removed and replaced with 100 μl serum-free media containing various dilutions of the test compound. Plates were then incubated for 18 hrs at 37° C. and a 100 μl aliquot of the tissue culture supernatant was removed for determination of Aβ levels using time-resolved fluorescence of the homogenous sample as outlined above. Alternately, the other methods described above for Aβ determination could be used. The extent of Aβ inhibition was used to calculate the IC50 value for the test compound.
In Table 2, an inhibitory concentration (IC50) of less than or equal to 50 nM is represented by +++; between 50 nM and 500 nM by ++; between 500 nM and 50000 nM by +.

γ-secretase = experiment: Competitive in vitro binding assay with [3H]-Compound A and membranes from THP-1 cells; conditions: displacement of [3H]-Compound A, THP-1 cell membranes, 23° C., 1.3 hr; read-out: Binding affinity (IC50 in nM)
Description: Competitive in vitro binding assays can be used to identify compounds that inhibit γ-secretase activity. For example, [^3H]-Compound A can be used for binding assays with membranes from THP-1 cells (Seiffert, D.; Bradley, J. et al., J. Biol. Chem. 2000, 275, 34086–34091). Compound A is (2R,3S) N1-[(3S)-hexahydro-1-(3-phenoxybenzyl)-2-oxo-1H-azepin-3-yl]-2-(2methylpropyl)-3-(propyl)-butanediamide, which is described in U.S. patent U.S. Pat. No. 6,331,408 (Dec. 18, 2001); PCT Publication WO 00/28331; PCT Publication WO 00/07995; and Seiffert, D., Bradley, J. et al., J. Biol. Chem. 2000, 275. 34086–34091.
To evaluate the compounds of this invention using this assay, THP-1 cells were grown in spinner cultures in RPMI 1640 containing L-glutamine and 10 μM β-mercaptoethanol to a density of 5×10^5 cells/ml. Cells were harvested by centrifugation and cell pellets were quick frozen in dry ice/ethanol and stored at −70° C. prior to use. The pellets of approximately 2×10^4 THP-1 cells were homogenized using a Brinkman Polytron at setting 6 for 10 sec. The homogenate was centrifuged at 48,000×g for 12 min, and the resulting pellet was washed by repeating the homogenization and centrifugation. The final cell pellet was resuspended in buffer to yield a protein concentration of approximately 0.5 mg/ml. Assays were initiated by the addition of 150 μl of membrane suspension to 150 μl of assay buffer containing 0.064 μCi of radioligand and various concentrations of unlabeled compounds. Binding assays were performed in duplicate in polypropylene 96-well plates in a final volume of 0.3 ml containing 50 mM Hepes, pH 7.0, and 5% dimethyl sulfoxide. Nonspecific binding was defined using incubations with 300 nM compound A (Seiffert, D., Bradley, J. et al., J. Biol. Chem. 2000, 275, 34086–34091). After incubating at 23° C. for 1.3 hr, bound ligand was separated from free radioligand by filtration over GFF glass fiber filters presoaked in 0.3% ethyleneimine polymer solution. Filters were washed three times with 0.3 ml of ice cold phosphate-buffered saline, pH 7.0, containing 0.1% Triton X-100. Filter-bound radioactivity was measured by scintillation counting. IC50 values were then determined and used to calculate Ki values using the Cheng-Prusoft correction for IC50 values.
The compounds of this invention were evaluated in the assay described above, as well as with other evaluation methods, and found to be inhibitors of γ-secretase. In the table, an inhibitory concentration (IC50) of less than or equal to 50 nM is represented by +++; between 50 nM and 500 nM by ++; between 500 nM and 10000 nM by +.

Compound: NC(=O)[C@@H]1CCCC[C@@H]1N(Cc1ccc(C(F)(F)F)cc1)S(=O)(=O)c1ccc(Cl)cc1 (relative stereo) [Example 10, cis-2-[(4-Chlorobenzenesulfonyl)-(4-trifluoromethyl-benzyl)-amino]-cyclohexanecarboxylic acid amide]
- IC50 ([1]; Homo sapiens): 50 to 500 nM

Compound: COC(=O)c1ccc(CN([C@@H]2CCCC[C@@H]2C(N)=O)S(=O)(=O)c2ccc(Cl)cc2)cc1 (relative stereo) [Example 13, cis-4-[[(2-Carbamoyl-cyclohexyl)-(4-chlorobenzenesulfonyl)-amino]-methyl]-benzoic acid methyl ester]
- IC50 ([1]; Homo sapiens): ≤ 50 nM

Compound: COC(=O)c1ccc(CN([C@@H]2CCCCC[C@@H]2C(N)=O)S(=O)(=O)c2ccc(Cl)cc2)cc1 (relative stereo) [Example 20, cis-4-[[(2-Carbamoyl-cycloheptyl)-(4-chlorobenzenesulfonyl)-amino]-methyl]-benzoic acid methyl ester]
- IC50 (γ-secretase): 50 to 500 nM

Compound: N#Cc1ccc(CN([C@H]2CCCCC[C@H]2C(N)=O)S(=O)(=O)c2ccc(Cl)cc2)cc1 (relative stereo) [Example 21, cis-2-[(4-Chlorobenzenesulfonyl)-(4-cyano-benzyl)-amino]-cycloheptanecarboxylic acid amide]
- IC50 ([1]; Homo sapiens): 500 to 50000 nM

Compound: NC(=O)[C@@H]1CCCCC[C@@H]1N(Cc1ccc(-n2cccn2)cc1)S(=O)(=O)c1ccc(Cl)cc1 (relative stereo) [Example 23, cis-2-[(4-Chlorobenzenesulfonyl)-(4-pyrazol-1-yl-benzyl)-amino]-cycloheptanecarboxylic acid amide]
- IC50 (γ-secretase): 500 to 10000 nM

Compound: CCNC(=O)c1ccc(CN([C@H]2CCCCC[C@H]2C(N)=O)S(=O)(=O)c2ccc(Cl)cc2)cc1 (relative stereo) [Example 24, cis-2-[(4-Chlorobenzenesulfonyl)-(4-ethylcarbamoyl-benzyl)-amino]-cycloheptanecarboxylic acid amide]
- IC50 ([1]; Homo sapiens): ≤ 50 nM

Compound: COC(=O)c1ccc(CN([C@@H]2CCCC[C@@H]2C(N)=O)S(=O)(=O)c2ccc(Cl)cc2)cc1 [Example 1, 4-[[(1R,2S)-(2-Carbamoyl-cyclohexyl)-(4-chlorobenzenesulfonyl)-amino]-methyl]-benzoic acid methyl ester]
- IC50 (γ-secretase): ≤ 50 nM
- IC50 ([1]; Homo sapiens): ≤ 50 nM

Compound: CCNC(=O)c1ccc(CN([C@@H]2CCCC[C@@H]2C(N)=O)S(=O)(=O)c2ccc(Cl)cc2)cc1 [Example 2, 4-[[(1R,2S)-(2-Carbamoyl-cyclohexyl)-(4-chlorobenzenesulfonyl)-amino]-methyl]-N-ethyl-benzamide]
- IC50 (γ-secretase): ≤ 50 nM
- IC50 ([1]; Homo sapiens): ≤ 50 nM

Compound: CC(C)(C)c1ccc(CN([C@@H]2CCCC[C@@H]2C(N)=O)S(=O)(=O)c2ccc(Cl)cc2)cc1 [Example 3, (1S,2R)-2-[(4-tert-Butyl-benzyl)-(4-chlorobenzenesulfonyl)-amino]-cyclohexanecarboxylic acid amide]
- IC50 ([1]; Homo sapiens): 50 to 500 nM

Compound: NC(=O)[C@H]1CCCC[C@H]1N(Cc1ccc(OC(F)(F)F)c(Cl)c1)S(=O)(=O)c1ccc(Cl)cc1 [Example 4, (1S,2R)-2-[(4-Chlorobenzenesulfonyl)-(3-chloro-4-trifluoromethoxy-benzyl)-amino]-cyclohexanecarboxylic acid amide]
- IC50 ([1]; Homo sapiens): 50 to 500 nM

Compound: NC(=O)[C@H]1CCCC[C@H]1N(Cc1ccc(F)c(Cl)c1)S(=O)(=O)c1ccc(Cl)cc1 [Example 5, (1S,2R)-2-[(4-Chlorobenzenesulfonyl)-(3-chloro-4fluoro-benzyl)-amino]-cyclohexanecarboxylic acid amide]
- IC50 ([1]; Homo sapiens): 50 to 500 nM

Compound: NC(=O)[C@H]1CCCC[C@H]1N(Cc1ccc(Cl)s1)S(=O)(=O)c1ccc(Cl)cc1 [Example 7, (1S,2R)-2-[(4-Chlorobenzenesulfonyl)-(5-chloro-thiophen-2-ylmethyl)-amino]-cyclohexanecarboxylic acid amide]
- IC50 ([1]; Homo sapiens): ≤ 50 nM

Compound: NC(=O)[C@H]1CCCC[C@H]1N(Cc1ccc(SC(F)(F)F)cc1)S(=O)(=O)c1ccc(Cl)cc1 [Example 8, (1S,2R)-2-[(4-Chlorobenzenesulfonyl)-(4-trifluoromethylsulfanyl-benzyl)-amino]-cyclohexanecarboxylic acid amide]
- IC50 ([1]; Homo sapiens): ≤ 50 nM

Compound: CCNC(=O)c1ccc(CN([C@@H]2CCCC[C@@H]2C(N)=O)S(=O)(=O)c2ccc(Cl)cc2)cc1 [Example 28, 4-[[(1R,2S)-(2-Carbamoyl-cyclohexyl)-(4-chlorobenzenesulfonyl)-amino]-methyl]-N-ethyl benzamide]
- IC50 (γ-secretase): 500 to 10000 nM

Compound: CCNC(=O)c1ccc(CN([C@H]2CCCC[C@@H]2C(N)=O)S(=O)(=O)c2ccc(Cl)cc2)cc1 [Example 29, 4-[[(1S,2S)-(2-Carbamoyl-cyclohexyl)-(4-chlorobenzenesulfonyl)-amino]-methyl]-N-ethyl benzamide]
- IC50 (γ-secretase): 50 to 500 nM

Compound: CCNC(=O)c1ccc(CN([C@@H]2CCCC[C@H]2C(N)=O)S(=O)(=O)c2ccc(Cl)cc2)cc1 [Example 30, 4-[[(1R,2R)-(2-Carbamoyl-cyclohexyl)-(4-chlorobenzenesulfonyl)-amino]-methyl]-N-ethyl benzamide]
- IC50 (γ-secretase): 50 to 500 nM

Compound: CCNC(=O)c1ccc(CN([C@@H]2CCC[C@@H]2C(N)=O)S(=O)(=O)c2ccc(Cl)cc2)cc1 [Example 31, 4-[[(1R,2S)-(2-Carbamoyl-cyclopentyl)-(4-chlorobenzenesulfonyl)-amino]-methyl]-N-ethyl-benzamide]
- IC50 (γ-secretase): 50 to 500 nM

Compound: CCNC(=O)c1ccc(CN([C@@H]2CCC[C@H]2C(N)=O)S(=O)(=O)c2ccc(Cl)cc2)cc1 [Example 32, 4-[[(1R,2R)-(2-Carbamoyl-cyclopentyl)-(4-chlorobenzenesulfonyl)-amino]-methyl]-N-ethyl-benzamide]
- IC50 (γ-secretase): 500 to 10000 nM

Compound: (1S,2R)-2-[(4- Chlorobenzenesulfonyl)-[4-( -hydroxy-1-methyl-ethyl)-benzyl]-amino]-cyclohexanecarboxylic acid amide [Example 6]
- IC50 [1]: ≤ 50 nM
